According to PubChem BioAssay (NCI):
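Here, GI50 denotes the concentration required for 50% inhibition of growth. TGI: total growth inhibition.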

Columns and labels:
Assay in all cases: NCI anticancer screen, dose series, 384-well format
SK-MEL-5 melanoma = system: SK-MEL-5 melanoma
SF-539 CNS = system: SF-539 CNS
PC-3 prostate = system: PC-3 prostate
OVCAR-5 ovarian = system: OVCAR-5 ovarian
LOX IMVI melanoma = system: LOX IMVI melanoma
MCF7 breast = system: MCF7 breast
OVCAR-3 ovarian = system: OVCAR-3 ovarian
SK-OV-3 ovarian = system: SK-OV-3 ovarian
A498 renal = system: A498 renal
SNB-19 CNS = system: SNB-19 CNS
NCI-H522 lung = system: NCI-H522 lung
RXF 393 renal = system: RXF 393 renal
SN12C renal = system: SN12C renal
NCI-H460 NSCLC = system: NCI-H460 NSCLC
KM12 colon = system: KM12 colon
SF-295 CNS = system: SF-295 CNS
CCRF-CEM leukemia = system: CCRF-CEM leukemia
NCI-H322M lung = system: NCI-H322M lung
MDA-MB-468 breast = system: MDA-MB-468 breast
K-562 leukemia = system: K-562 leukemia
CAKI-1 renal = system: CAKI-1 renal
SK-MEL-28 melanoma = system: SK-MEL-28 melanoma
SW-620 colon = system: SW-620 colon
TK-10 renal = system: TK-10 renal
M14 melanoma = system: M14 melanoma
MDA-MB-231 breast = system: MDA-MB-231 breast
MOLT-4 leukemia = system: MOLT-4 leukemia
A549 NSCLC = system: A549 NSCLC
HT29 colon = system: HT29 colon
UACC-257 melanoma = system: UACC-257 melanoma

## C[C@@H]1COCCN1c1cc(C2(S(C)(=N)=O)CC2)nc(-c2ccnc3[nH]ccc23)n1 (some centres undefined)
SK-MEL-5 melanoma
  GI50: 3.62 µM
  TGI: 12.8 µM
SF-539 CNS
  GI50: 1.29 µM
  TGI: 5.89 µM
PC-3 prostate
  GI50: 5.4 µM
  TGI: 31.3 µM
OVCAR-5 ovarian
  GI50: 3.98 µM
  TGI: 22.4 µM
LOX IMVI melanoma
  GI50: 1.29 µM
  TGI: 8.31 µM
MCF7 breast
  GI50: 0.615 µM
  TGI: > 39.4 µM
OVCAR-3 ovarian
  GI50: 3.03 µM
  TGI: 18.1 µM
SK-OV-3 ovarian
  GI50: 1.78 µM
  TGI: 18.9 µM
A498 renal
  GI50: 0.637 µM
  TGI: 2.25 µM
SNB-19 CNS
  GI50: 6.13 µM
  TGI: 57.3 µM
NCI-H522 lung
  GI50: 9.39 µM
  TGI: 25 µM
RXF 393 renal
  GI50: 2.67 µM
  TGI: 9.58 µM
SN12C renal
  GI50: 2.96 µM
  TGI: 17.1 µM
NCI-H460 NSCLC
  GI50: 0.541 µM
  TGI: 4.87 µM
KM12 colon
  GI50: 1.63 µM
  TGI: 22.3 µM
SF-295 CNS
  GI50: 2.47 µM
  TGI: 9.13 µM
CCRF-CEM leukemia
  GI50: 0.638 µM
  TGI: 1.9 µM
NCI-H322M lung
  GI50: 1.11 µM
  TGI: 5.59 µM
MDA-MB-468 breast
  GI50: 4.8 µM
  TGI: 18.6 µM
K-562 leukemia
  GI50: 2.35 µM
  TGI: 6.73 µM
CAKI-1 renal
  GI50: 2.84 µM
  TGI: > 40 µM
SK-MEL-28 melanoma
  GI50: 11.6 µM
  TGI: 24.8 µM
SW-620 colon
  GI50: 2.77 µM
  TGI: 50.4 µM
TK-10 renal
  GI50: 0.756 µM
  TGI: 3.58 µM
M14 melanoma
  GI50: 1.64 µM
  TGI: 4.36 µM
MDA-MB-231 breast
  GI50: 5.68 µM
  TGI: > 44.6 µM
MOLT-4 leukemia
  GI50: 1.02 µM
  TGI: 2.26 µM
A549 NSCLC
  GI50: 3.54 µM
  TGI: > 44.4 µM
HT29 colon
  GI50: 3.55 µM
  TGI: 15.8 µM
UACC-257 melanoma
  GI50: 13 µM
